Results from ChEMBL document CHEMBL1799917, “Isolation, sequencing, and structure-activity relationships of cyclotides” (J Nat Prod, 2010).
Values after ≈ are worked out from the molar mass of the structure shown. Where a SMILES comes first, the peptide text is derived from it. Bridges are numbered along the chain shown (N, C = ends). [ ]: non-standard residue; d: D form. aThr = C[C@H](O)[C@H](N)C(=O)O

Key:
[1] = Cytotoxicity against human 8226/LR-5 cells after 72 hrs by fluorometric microculture cytotoxicity assay; type: functional, cell-based
[2] = tested on: R1; experiment: Cytotoxicity against mouse R1 cells after 72 hrs by fluorometric microculture cytotoxicity assay; type: cell-based; conditions: R1, 72 h
[3] = tested on: U-937/GTB; experiment: Cytotoxicity against human U937/GTB cells after 72 hrs by fluorometric microculture cytotoxicity assay; type: functional, cell-based
[4] = Hemolytic activity in human RBC; type: ADME, cell-based, Erythrocyte; conditions: human red blood cells, read-out: HD50 (the source's name)
[5] = Cytotoxicity against human 8226/DOX40 cells after 72 hrs by fluorometric microculture cytotoxicity assay; type: functional, cell-based
[6] = tested on: ACHN; experiment: Cytotoxicity against human ACHN cells after 72 hrs by fluorometric microculture cytotoxicity assay; type: functional, cell-based
[7] = tested on: U-937; experiment: Cytotoxicity against human vincristine-resistant U937 cells after 72 hrs by fluorometric microculture cytotoxicity assay; type: functional, cell-based; conditions: U-937, 72 h
[8] = tested on: CCRF-CEM; experiment: Cytotoxicity against human CCRF-CEM cells after 72 hrs by fluorometric microculture cytotoxicity assay; type: functional, cell-based
[9] = tested on: RPMI-8226; experiment: Cytotoxicity against human RPMI8226/S cells after 72 hrs by fluorometric microculture cytotoxicity assay; type: functional, cell-based
[10] = Cytotoxicity against human CEM/VM1 cells after 72 hrs by fluorometric microculture cytotoxicity assay; type: functional, cell-based; conditions: CEM-VM1, 72 h
[11] = tested on: Human immunodeficiency virus 1; experiment: Antiviral activity against HIV1 infected in human CEM-SS cells assessed as protection against virus-induced cytopathic effect by XTT method; type: functional, organism-based; conditions: Human immunodeficiency virus 1, CEM-SS
[12] = tested on: Proteus vulgaris; experiment: Antimicrobial activity against Proteus vulgaris ATCC 49132; type: functional
[13] = tested on: Kluyveromyces marxianus; experiment: Antimicrobial activity against Candida kefyr ATCC 37095; type: functional
[14] = tested on: Escherichia coli; experiment: Antimicrobial activity against Escherichia coli ATCC 25922; type: functional
[15] = tested on: Staphylococcus aureus; experiment: Antimicrobial activity against Staphylococcus aureus ATCC 29213; type: functional
[16] = tested on: Klebsiella oxytoca; experiment: Antimicrobial activity against Klebsiella oxytoca ATCC 49131; type: functional
[17] = tested on: CEM-SS (Homo sapiens); experiment: Cytotoxicity against human CEM-SS cells
[18] = Hemolytic activity in human type A RBC; type: ADME, cell-based, Erythrocyte; conditions: human type A red blood cells, read-out: HD50 (the source's name)
[19] = tested on: Pseudomonas aeruginosa; experiment: Antimicrobial activity against Pseudomonas aeruginosa ATCC 27853; type: functional
[20] = tested on: Candida tropicalis; experiment: Antimicrobial activity against Candida tropicalis ATCC 37097; type: functional
[21] = Hemolytic activity in human type A RBC assessed as concentration required to cause 11% hemolysis after 1 hr by microtitre plate; type: ADME, cell-based; conditions: erythrocyte

`CC(C)C[C@@H]1NC(=O)CNC(=O)[C@H](CC(N)=O)NC(=O)[C@H](CCCNC(=N)N)NC(=O)[C@H]([C@@H](C)O)NC(=O)[C@@H]2CSSC[C@@H]3NC(=O)[C@H]([C@@H](C)O)NC(=O)CNC(=O)CNC(=O)[C@H](C(C)C)NC(=O)[C@@H]4CSSC[C@H](NC(=O)[C@H](CO)NC(=O)[C@H](CSSC[C@H](NC(=O)[C@H](C(C)C)NC(=O)[C@@H]5CCCN5C1=O)C(=O)NCC(=O)N[C@@H](CCC(=O)O)C(=O)N[C@@H]([C@@H](C)O)C(=O)N4)NC(=O)CNC(=O)[C@@H]1CCCN1C(=O)[C@H]([C@@H](C)O)NC(=O)[C@H](CC(N)=O)NC3=O)C(=O)N[C@@H](CO)C(=O)N[C@@H](Cc1c[nH]c3ccccc13)C(=O)N1CCC[C@H]1C(=O)N[C@@H](C(C)C)C(=O)N2` gave an IC50 [1] of 2.73 µM, an IC50 [2] of 2.73 µM and an IC50 [3] of 2.73 µM. For the same molecule, the HC50 [4] was 50 µM, the IC50 [5] was 2.73 µM and the IC50 [6] was 2.73 µM. The IC50 [7] was 2.73 µM, the IC50 [8] was 2.73 µM and the IC50 [9] was 2.73 µM. For the same molecule, the IC50 [10] was 2.73 µM.

For `CC[C@H](C)[C@@H]1NC(=O)[C@@H]2CCCN2C(=O)[C@H](C(C)C)NC(=O)CNC(=O)[C@H](CC(N)=O)NC(=O)[C@H](CCCNC(=N)N)NC(=O)[C@H]([C@@H](C)O)NC(=O)[C@@H]2CSSC[C@@H]3NC(=O)[C@H]([C@@H](C)O)NC(=O)CNC(=O)[C@H](CC(C)C)NC(=O)[C@H]([C@@H](C)O)NC(=O)[C@@H]4CSSC[C@H](NC(=O)[C@H](CO)NC(=O)[C@H](CSSC[C@H](NC1=O)C(=O)NCC(=O)N[C@@H](CCC(=O)O)C(=O)N[C@@H]([C@@H](C)O)C(=O)N4)NC(=O)CNC(=O)[C@H](C)NC(=O)[C@H]([C@@H](C)O)NC(=O)[C@H](Cc1ccc(O)cc1)NC3=O)C(=O)N[C@@H](CO)C(=O)N[C@@H](Cc1c[nH]c3ccccc13)C(=O)N1CCC[C@H]1C(=O)N[C@@H](C(C)C)C(=O)N2` (cyclo(AGCSCSWPVCTRNGVPICGETCTLGTCYT); disulfide 3-18, 5-22, 10-27), the IC50 [1] was 2.63 µM, the IC50 [2] was 2.63 µM and the IC50 [3] was 2.63 µM. The IC50 [5] was 2.63 µM, the IC50 [6] was 2.63 µM and the IC50 [7] was 2.63 µM. The IC50 [8] was 2.63 µM, the IC50 [9] was 2.63 µM and the IC50 [10] was 2.63 µM.

Molecule `CC[C@H](C)[C@@H]1NC(=O)[C@H](CCSC)NC(=O)[C@H](C)NC(=O)[C@@H]2CSSC[C@@H]3NC(=O)[C@H](CO)NC(=O)[C@@H]4CSSC[C@H](NC(=O)[C@H](CO)NC(=O)[C@H]([C@@H](C)CC)NC(=O)[C@H](CO)NC(=O)[C@H](CC(N)=O)NC(=O)[C@H](CC(C)C)NC(=O)[C@H](Cc5ccc(O)cc5)NC(=O)[C@H](CSSC[C@H](NC(=O)[C@H](Cc5ccccc5)NC(=O)[C@H](CO)NC1=O)C(=O)N[C@@H](Cc1ccccc1)C(=O)N[C@@H]([C@@H](C)O)C(=O)N[C@@H](CCC(=O)O)C(=O)N[C@@H](C(C)C)C(=O)N[C@@H]([C@@H](C)CC)C(=O)NCC(=O)N4)NC(=O)[C@H](C(C)C)NC(=O)[C@H](CCCCN)NC(=O)[C@H](CC(N)=O)NC(=O)[C@H](CCCCN)NC3=O)C(=O)NCC(=O)N[C@@H](CCC(=O)O)C(=O)N[C@@H](CO)C(=O)N2` (cyclo(AMISFCFTEVIGCSCKNKVCYLNSISCGESC); disulfide 6-20, 13-27, 15-31) has an EC50 [11] of 0.87 µM.

`CC[C@H](C)[C@@H]1NC(=O)[C@@H]2CSSC[C@@H]3NC(=O)[C@H](C(C)C)NC(=O)[C@H](CCCCN)NC(=O)[C@H](CC(N)=O)NC(=O)[C@H](CCCCN)NC(=O)[C@@H]4CSSC[C@H](NC(=O)[C@H](CO)NC(=O)[C@H](CCC(=O)O)NC(=O)CNC(=O)[C@H](CSSC[C@H](NC(=O)CNC(=O)[C@H](CC(C)C)NC(=O)[C@H](CC(C)C)NC(=O)[C@H]([C@@H](C)O)NC(=O)[C@H](CO)NC1=O)C(=O)N[C@@H](CO)C(=O)N4)NC(=O)[C@@H]1CCCN1C(=O)[C@H]([C@@H](C)CC)NC(=O)[C@H](C(C)C)NC(=O)CNC(=O)[C@H](CC(N)=O)NC(=O)[C@H](CCCNC(=N)N)NC(=O)[C@H](Cc1ccc(O)cc1)NC3=O)C(=O)N[C@@H](C(C)C)C(=O)N[C@@H](Cc1ccccc1)C(=O)N[C@@H]([C@@H](C)CC)C(=O)N1CCC[C@H]1C(=O)N2` [CIRCULIN B] (cyclo(CGESCVFIPCISTLLGCSCKNKVCYRNGVIP); disulfide 1-17, 5-19, 10-24) showed an MIC [12] of 6.8 µM (≈ 22.3 µg/mL), an MIC [13] of 29 µM (≈ 95.2 µg/mL) and an MIC [14] of 0.41 µM (≈ 1.35 µg/mL). It also gave an MIC [15] of 13.5 µM (≈ 44.3 µg/mL), an IC50 [2] of 820 µM and an MIC [16] of 8.2 µM (≈ 26.9 µg/mL). The IC50 [17] was 0.5 µM, the HC50 [18] was 550 µM and the MIC [19] was 25.5 µM (≈ 83.7 µg/mL).

With `CC[C@H](C)[C@@H]1NC(=O)[C@@H]2CCCN2C(=O)[C@H](CS)NC(=O)CNC(=O)[C@H](CCC(=O)O)NC(=O)[C@H](CO)NC(=O)[C@H](CS)NC(=O)[C@H](C(C)C)NC(=O)[C@H](Cc2ccccc2)NC(=O)[C@H]([C@@H](C)CC)NC(=O)[C@@H]2CCCN2C(=O)[C@H](CS)NC(=O)[C@H]([C@H](C)O)NC(=O)[C@H](C(C)C)NC(=O)[C@H]([C@H](C)O)NC(=O)[C@H](C)NC(=O)[C@H](CC(C)C)NC(=O)[C@H](CC(C)C)NC(=O)CNC(=O)[C@H](CS)NC(=O)[C@H](CO)NC(=O)[C@H](CS)NC(=O)[C@H](CCCCN)NC(=O)[C@H](CO)NC(=O)[C@H](CCCCN)NC(=O)[C@H](C(C)C)NC(=O)[C@H](CS)NC(=O)[C@H](Cc2ccc(O)cc2)NC(=O)[C@H](CCCCN)NC(=O)[C@H](CC(N)=O)NC(=O)[C@H](CO)NC1=O` [CYCLOPSYCHOTRIDE A] (cyclo(A[aThr]V[aThr]CPIFVCSEGCPISNKYCVKSKCSCGLL)) the MIC [12] was 13.2 µM (≈ 42.7 µg/mL), the MIC [13] was 14 µM (≈ 45.3 µg/mL) and the MIC [14] was 1.55 µM (≈ 5.02 µg/mL). For the same molecule, the MIC [15] was 39 µM (≈ 126 µg/mL), the MIC [16] was 5.8 µM (≈ 18.8 µg/mL) and the MIC [20] was 56.5 µM (≈ 183 µg/mL). The HC50 [18] was 405 µM and the MIC [19] was 13.5 µM (≈ 43.7 µg/mL).

Work on `CC[C@H](C)[C@@H]1NC(=O)[C@H](CO)NC(=O)CNC(=O)[C@H](CC(N)=O)NC(=O)[C@H](CCCCN)NC(=O)[C@H](C)NC(=O)[C@@H]2CSSC[C@@H]3NC(=O)[C@H](CCCCN)NC(=O)CNC(=O)[C@H](C)NC(=O)[C@H](Cc4ccccc4)NC(=O)[C@@H]4CSSC[C@H](NC(=O)[C@H](CO)NC(=O)[C@H](CSSC[C@H](NC(=O)[C@H](C)NC(=O)[C@@H]5CCCN5C1=O)C(=O)NCC(=O)N[C@@H](CCC(=O)O)C(=O)N[C@@H](CO)C(=O)N4)NC(=O)CNC(=O)[C@@H]1CCCN1C(=O)[C@H]([C@@H](C)O)NC(=O)[C@H](Cc1ccc(O)cc1)NC3=O)C(=O)N[C@@H](CO)C(=O)N[C@@H](CCCCN)C(=O)N[C@@H](Cc1ccc(O)cc1)C(=O)N1CCC[C@H]1C(=O)N[C@@H](CC(C)C)C(=O)N2` [CYCLOVIOLACIN O14] (cyclo(ACGESCFAGKCYTPGCSCSKYPLCAKNGSIP); disulfide 2-16, 6-18, 11-24) yielded an Activity [21] of 25 µM.

In the case of `CC[C@H](C)[C@@H]1NC(=O)[C@@H]2CCCN2C(=O)[C@H](Cc2ccc(O)cc2)NC(=O)[C@H](CO)NC(=O)[C@@H]2CSSC[C@@H]3NC(=O)[C@H]([C@@H](C)O)NC(=O)[C@H](CCC(=O)O)NC(=O)CNC(=O)[C@@H]4CSSC[C@H](NC(=O)CNC(=O)[C@@H]5CCCN5C(=O)[C@H]([C@@H](C)O)NC(=O)[C@H](Cc5ccc(O)cc5)NC(=O)[C@H](CSSC[C@H](NC1=O)C(=O)N[C@@H](CCCCN)C(=O)N[C@@H](CCCCN)C(=O)N[C@@H](CC(N)=O)C(=O)NCC(=O)N[C@@H](CC(C)C)C(=O)N[C@@H](C(C)C)C(=O)N1CCC[C@H]1C(=O)N4)NC(=O)[C@H](CCCCN)NC(=O)CNC(=O)[C@H]([C@@H](C)O)NC(=O)[C@H](Cc1ccccc1)NC3=O)C(=O)N[C@@H](CO)C(=O)N2` [CYCLOVIOLACIN O15] (cyclo(CFTGKCYTPGCSCSYPICKKNGLVPCGET); disulfide 1-13, 6-18, 11-26), the Activity [21] is reported as 25 µM.

Work on `CC(C)C[C@@H]1NC(=O)CNC(=O)[C@H](CC(N)=O)NC(=O)[C@H](C)NC(=O)[C@H]([C@@H](C)O)NC(=O)[C@@H]2CSSC[C@@H]3NC(=O)[C@H]([C@@H](C)O)NC(=O)CNC(=O)CNC(=O)[C@H](C(C)C)NC(=O)[C@@H]4CSSC[C@H](NC(=O)[C@H](CO)NC(=O)[C@H](CSSC[C@H](NC(=O)[C@H](C(C)C)NC(=O)[C@@H]5CCCN5C1=O)C(=O)NCC(=O)N[C@@H](CCC(=O)O)C(=O)N[C@@H]([C@@H](C)O)C(=O)N4)NC(=O)CNC(=O)[C@@H]1CCCN1C(=O)[C@H]([C@@H](C)O)NC(=O)[C@H](CC(N)=O)NC3=O)C(=O)N[C@@H](CO)C(=O)N[C@@H](CCCNC(=N)N)C(=O)N1CCC[C@H]1C(=O)N[C@@H](C(C)C)C(=O)N2` [VIOLAPEPTIDE 1] yielded an HC50 [4] of 50 µM.
